Positions of bridges follow the written chain, without caps; N, C: chain ends. Non-standard residues stand in square brackets, D forms with d. Residues, ends and D or L forms follow the SMILES beside them. *: point of attachment. hPhe(3-Cl-4-CF3) = N[C@@H](CCc1ccc(C(F)(F)F)c(Cl)c1)C(=O)O; hPhe(3-F,4-CF3) = N[C@@H](CCc1ccc(C(F)(F)F)c(F)c1)C(=O)O; Pro(trans-4-Ph) = O=C(O)[C@@H]1C[C@@H](c2ccccc2)CN1; NMePhe(4-Me) = CN[C@@H](Cc1ccc(C)cc1)C(=O)O; NMeNle(6-CHF2) = CN[C@@H](CCCCC(F)F)C(=O)O; NMeAla(cPent) = CN[C@@H](CC1CCCC1)C(=O)O; NMeGly(cPent) = CN[C@H](C(=O)O)C1CCCC1; NMeCha = CN[C@@H](CC1CCCCC1)C(=O)O; NMeChg = CN[C@H](C(=O)O)C1CCCCC1; NMeD = CN[C@@H](CC(=O)O)C(=O)O; NMeL = CN[C@@H](CC(C)C)C(=O)O; NMeV = CN[C@H](C(=O)O)C(C)C; NMeS = CN[C@@H](CO)C(=O)O; Morpholide = C1CN(*)CCO1; NMeA = CN[C@@H](C)C(=O)O; Piperidide = C1CCN(*)CC1; Ac5c = NC1(C(=O)O)CCCC1; Aze = O=C(O)[C@@H]1CCN1; Sar = CNCC(=O)O; Propyl = CCC*
tested on: Human pancreatic cancer cell line AsPC-1; experiment: Measurement of AsPC-1 cell growth inhibition (AsPC-1 CGI); type: cell-based; conditions: 96 h
Summary of the method: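 AsPC-1 cells in 15% FBS RPMI-1640 were exposed to test compound for 96 hours at 37° C, with CellTiter-Glo as endpoint.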

**Q.** How did the IC50 turn out when `CCCOC[C@H]1C(=O)N[C@@H]([C@@H](C)CC)C(=O)N(C)[C@@H](C)C(=O)N2CC[C@H]2C(=O)N(C)[C@@H](CC2CCCCC2)C(=O)N(C)CC(=O)N[C@@H](CCc2ccc(C(F)(F)F)c(Cl)c2)C(=O)N2CCC[C@H]2C(=O)NC2(CCCC2)C(=O)N(C)[C@@H](C(C)C)C(=O)N(C)[C@H](C(=O)N2CCCCC2)CC(=O)N1C` [Compound 1763] ([NMeS](Propyl)I[NMeA][Aze][NMeCha][Sar][hPhe(3-Cl-4-CF3)]P[Ac5c][NMeV][NMeD]-Piperidide; lactam N-11) was run?
**A.** Its IC50 is 0.1 to 0.5 µM.

**Q.** For `CC[C@H](C)[C@@H]1NC(=O)[C@H](CC2CCCC2)N(C)C(=O)C[C@@H](C(=O)N(C)C)N(C)C(=O)[C@H](C2CCCC2)N(C)C(=O)C2(CCCC2)NC(=O)[C@@H]2CCCN2C(=O)[C@H](CCc2ccc(C(F)(F)F)c(F)c2)NC(=O)CN(C)C(=O)[C@H](CC2CCCCC2)N(C)C(=O)[C@@H]2CCN2C(=O)[C@H](C)NC1=O` [Compound 1340] ([NMeAla(cPent)]IA[Aze][NMeCha][Sar][hPhe(3-F,4-CF3)]P[Ac5c][NMeGly(cPent)][NMeD]-NMe2; lactam N-11), which IC50 is on record?
**A.** The IC50 was 0.02 to 0.05 µM.

**Q.** Which IC50 does the source give for `CC[C@H](C)[C@@H]1NC(=O)[C@H](CC2CCCC2)N(C)C(=O)C[C@@H](C(=O)N2CCOCC2)N(C)C(=O)[C@H](C2CCCC2)N(C)C(=O)C2(CCCC2)NC(=O)[C@@H]2CCCN2C(=O)[C@H](CCc2ccc(C(F)(F)F)c(Cl)c2)NC(=O)CN(C)C(=O)[C@H](C2CCCC2)N(C)C(=O)[C@@H]2CCN2C(=O)[C@H](C)NC1=O` [Compound 1145] ([NMeAla(cPent)]IA[Aze][NMeGly(cPent)][Sar][hPhe(3-Cl-4-CF3)]P[Ac5c][NMeGly(cPent)][NMeD]-Morpholide; lactam N-11) here?
**A.** The IC50 was 0.1 to 0.5 µM.

**Q.** Which IC50 does the source give for `CC[C@H](C)[C@@H]1NC(=O)[C@H](CC(C)C)N(C)C(=O)C[C@@H](C(=O)N(C)C)NC(=O)[C@H](C2CCCC2)N(C)C(=O)C2(CCCC2)NC(=O)[C@@H]2CCCN2C(=O)[C@H](CCc2ccc(C(F)(F)F)c(Cl)c2)NC(=O)CN(C)C(=O)[C@H](CC2CCCCC2)N(C)C(=O)[C@@H]2CCN2C(=O)[C@H](C)N(C)C1=O` [Compound 677] ([NMeL]I[NMeA][Aze][NMeCha][Sar][hPhe(3-Cl-4-CF3)]P[Ac5c][NMeGly(cPent)]D-NMe2; lactam N-11) here?
**A.** The IC50 was 0.05 to 0.1 µM.

**Q.** For `CC[C@H](C)[C@@H]1NC(=O)[C@H](CCCCC(F)F)N(C)C(=O)C[C@@H](C(=O)N2CCCCC2)N(C)C(=O)[C@H](C(C)C)N(C)C(=O)C2(CCCC2)NC(=O)[C@@H]2CCCN2C(=O)[C@H](CCc2ccc(C(F)(F)F)c(Cl)c2)NC(=O)CN(C)C(=O)[C@H](CC2CCCCC2)N(C)C(=O)[C@@H]2CCN2C(=O)[C@H](C)N(C)C1=O` [Compound 94] ([NMeNle(6-CHF2)]I[NMeA][Aze][NMeCha][Sar][hPhe(3-Cl-4-CF3)]P[Ac5c][NMeV][NMeD]-Piperidide; lactam N-11), which IC50 is on record?
**A.** Its IC50 is 0.1 to 0.5 µM.

**Q.** Which IC50 does the source give for `CC[C@H](C)[C@@H]1NC(=O)[C@H](CC(C)C)N(C)C(=O)C[C@@H](C(=O)N2CCCCC2)N(C)C(=O)[C@H](C(C)C)N(C)C(=O)C2(CCCC2)NC(=O)[C@@H]2CCCN2C(=O)[C@H](CCc2ccc(C(F)(F)F)c(Cl)c2)NC(=O)CN(C)C(=O)[C@H](Cc2ccc(C)cc2)N(C)C(=O)[C@@H]2CCN2C(=O)[C@H](C)N(C)C1=O` [Compound 1828] ([NMeL]I[NMeA][Aze][NMePhe(4-Me)][Sar][hPhe(3-Cl-4-CF3)]P[Ac5c][NMeV][NMeD]-Piperidide; lactam N-11) here?
**A.** Its IC50 is 0.1 to 0.5 µM.

**Q.** Which IC50 does the source give for `CC[C@H](C)[C@@H]1NC(=O)[C@H](CC(C)C)N(C)C(=O)C[C@@H](C(=O)N2CCCCC2)N(C)C(=O)[C@H](C2CCCCC2)N(C)C(=O)C2(CCCC2)NC(=O)[C@@H]2C[C@@H](c3ccccc3)CN2C(=O)[C@H](CCc2ccc(C(F)(F)F)c(Cl)c2)NC(=O)CN(C)C(=O)[C@H](CC2CCCCC2)N(C)C(=O)CN(C)C(=O)CN(C)C1=O` [Compound 90] ([NMeL]I[Sar][Sar][NMeCha][Sar][hPhe(3-Cl-4-CF3)][Pro(trans-4-Ph)][Ac5c][NMeChg][NMeD]-Piperidide; lactam N-11) here?
**A.** The IC50 was 0.1 to 0.5 µM.
